Results as given in doi:10.1101/2023.07.10.548257 (bioRxiv, 2024).

Molecular target: T1, full-length SHP2^R138Q (Homo sapiens, UniProt Q06124, R138Q)
T1 construct: Full-length SHP2 constructs were diluted in assay buffer; His6-TEV (N, cleaved yes); made in house; host or cells: E. coli BL21(DE3)
T1 sequence (Q06124 1-593 R138Q): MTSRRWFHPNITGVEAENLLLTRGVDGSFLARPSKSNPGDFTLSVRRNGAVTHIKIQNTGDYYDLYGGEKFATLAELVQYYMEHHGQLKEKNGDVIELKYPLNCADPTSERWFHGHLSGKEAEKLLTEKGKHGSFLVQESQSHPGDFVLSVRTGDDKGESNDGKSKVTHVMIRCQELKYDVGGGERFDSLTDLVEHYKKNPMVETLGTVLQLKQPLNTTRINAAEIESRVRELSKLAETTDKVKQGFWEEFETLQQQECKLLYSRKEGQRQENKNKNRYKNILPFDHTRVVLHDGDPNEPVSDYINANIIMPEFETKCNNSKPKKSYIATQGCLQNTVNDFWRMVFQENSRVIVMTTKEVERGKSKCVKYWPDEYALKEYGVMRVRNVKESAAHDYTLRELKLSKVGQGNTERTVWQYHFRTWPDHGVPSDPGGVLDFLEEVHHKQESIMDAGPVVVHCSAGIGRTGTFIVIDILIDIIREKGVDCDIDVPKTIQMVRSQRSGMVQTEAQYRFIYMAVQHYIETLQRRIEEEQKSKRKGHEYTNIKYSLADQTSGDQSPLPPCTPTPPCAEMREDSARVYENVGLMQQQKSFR
Assay: SHP2 activation assay using phosphopeptides (DiFMUP), SHP2 R138Q
Format: biochemical
Settings: activation of full-length SHP2 R138Q (0.05 nM) by phosphopeptide; DiFMUP substrate; HEPES pH 7.2 assay buffer; mean of N (column N)
Description: Emitted fluorescence at 455nm was recorded every 25 seconds in a span of 50 minutes using a BioTek Synergy Neo2 multi-mode reader. […]
In all cases, the linear region of the reaction progress curve was determined by visual inspection and fit to a line. These slopes were converted from absorbance or fluorescence units as a function of time to product formation as a function of time using standard curves measured with the reaction products (p-nitrophenol and 6,8-difluoro-7-hydroxy-4-methylcoumarin). […]
SHP2 activation assays using phosphopeptides
Full-length SHP2 constructs were diluted in assay buffer (60 mM HEPES pH 7.2, 75 mM KCl, 75 mM NaCl,1 mM EDTA, 0.05% Tween-20, with 0.5 mM TCEP freshly added) to a 2X concentration of 0.1 nM. Peptides were serially diluted in assay buffer, with the last point of the concentration series fully without peptide. 15 μL of peptide and 15 μL of 800 μM DiFMUP was added to a black 96-well half area plate. Right before starting the plate reader assay, 30 μL SHP2 was added to each well a Supplementary Information - page 4 of 18 […]
final concentration of 0.05nM. Kinetic measurements (Ex 358/Em […]) were taken on a BioTek Neo2 plate reader every 25 seconds for 6 minutes.
Cloning of the PD-1 ITIM scanning mutagenesis library […]
described previously for other peptide display libraries in the eCPX system (2, 4). A series of oligonucleotides spanning the peptide-coding sequence was synthesized with a different NNS codon in place of each wild-type codon (11 oligonucleotides in total). These degenerate primers were pooled then used to amplify a library of linear DNA encoding mutant ITIM fusions to the eCPX scaffold protein.
This library was then cloned into the pBAD33 vector used for surface display.
SH2 specificity profiling using bacterial peptide display
Preparation of bacterial cells
Electrocompetent MC1061 cells were transformed with ~100 ng of the respective library. After 1 hour recovery in 1 mL LB, cells were further diluted into 250 mL LB + 0.1% chloramphenicol. 1.8 mL of overnight culture was used to inoculate 100 mL LB + 0.1% chloramphenicol, and grown until OD600 reached 0.5. 20 mL of cell suspension was induced at 25 °C using a final concentration of 0.4% arabinose until the OD600 ~ 1 (after approximately 4 hours). The cells were spun down at 4000 rpm for 15 minutes, and the pellet was resuspended in PBS so that the OD600 ~1.5. The cells were stored in the fridge and used within a week.
For each sample, 75 μL of Dynabeads™ FlowComp™ Flexi Kit were washed twice in 1 mL SH2 buffer (50 mM HEPES pH 7.5, 150 mM NaCl, 1 mM TCEP, and 0.2% BSA) on a magnetic rack.
The beads were then resuspended in 75 μL of SH2 buffer. SH2 domains were thawed quickly and 20 μM of protein was added to the beads. SH2 buffer was added up to 150 μL, and the suspension was incubated for 1 hour at 4 °C while rotating. After 1 hour, the suspension was placed on a magnetic rack and washed twice with 1 mL SH2 buffer.
Preparing the phosphorylated cells
150 μL of prepared cells per sample were spun down for 4000 rpm for 5 minutes at 4 °C.
Kinase screen buffer was prepared (50 mM Tris, 10 mM magnesium chloride, 150 mM sodium chloride; add 2 mM sodium orthovanadate and 1 mM TCEP fresh) and the cells of each sample were resuspended in 100 μL kinase screen buffer. Kinases c-Src, c-Abl, AncSZ, Eph1B were added to a final concentration of 2.5 µM each, creatine phosphate was added to a final concentration of 5 mM, and phosphokinase was added to a final concentration of 50 µg/mL. The suspension was incubated at 37 °C for 5 minutes before ATP was added to a final concentration of 1 mM. This mixture was incubated at 37 °C for 3 hours. After 3 hours, EDTA was added to a final concentration of 25 mM to quench the reaction. The input library control sample was not phosphorylated. These cells were spun down at 4000 rpm for 15 minutes at 4 °C. The cells were then resuspended in 100 µL of SH2 buffer […]

| SMILES | EC50 [µM] |
| --- | --- |
| CC[C@H](C)[C@H](NC(=O)[C@@H](NC(=O)[C@H](C)NC(=O)[C@H](Cc1ccc(OP(=O)(O)O)cc1)NC(=O)[C@@H](NC(=O)[C@@H]1CCCN1C(=O)[C@H](CCC(=O)O)NC(=O)[C@@H]1CCCN1C(=O)[C@H](CO)NC(=O)[C@@H](NC(C)=O)C(C)C)[C@@H](C)CC)[C@@H](C)O)C(=O)N[C@@H](CC(=O)O)C(=O)N[C@@H](CC(=O)O)C(=O)N[C@@H](CC(C)C)C(N)=O | 27.3 |
| CC(=O)N[C@@H](CO)C(=O)N[C@H](C(=O)NCC(=O)N[C@@H](CO)C(=O)N[C@H](C(=O)N[C@@H](CC(=O)O)C(=O)N[C@@H](Cc1ccc(OP(=O)(O)O)cc1)C(=O)N[C@@H](CC(C)C)C(=O)N[C@@H](C)C(=O)N[C@@H](CC(C)C)C(=O)N[C@@H](CC(=O)O)C(=O)N[C@@H](Cc1ccccc1)C(=O)N[C@@H](CCC(N)=O)C(N)=O)C(C)C)[C@@H](C)O | 5.98 |
| CC[C@H](C)[C@H](NC(=O)[C@H](Cc1ccc(OP(=O)(O)O)cc1)NC(=O)[C@H](CC(N)=O)NC(=O)[C@H](CC(C)C)NC(=O)CNC(=O)[C@H](CC(N)=O)NC(=O)[C@H](CCC(=O)O)NC(=O)[C@H](CC(C)C)NC(C)=O)C(=O)N[C@@H](CC(=O)O)C(=O)N[C@@H](CC(C)C)C(=O)N[C@@H](CC(=O)O)C(=O)N[C@@H](CC(C)C)C(=O)N[C@H](C(N)=O)C(C)C | 1.43 |
| CC[C@H](C)[C@H](NC(=O)[C@H](CC(N)=O)NC(=O)[C@@H](NC(=O)[C@H](Cc1ccc(OP(=O)(O)O)cc1)NC(=O)[C@H](CCC(=O)O)NC(=O)CNC(=O)[C@@H]1CCCN1C(=O)[C@H](CO)NC(=O)[C@H](CCCCN)NC(=O)[C@@H]1CCCN1C(C)=O)C(C)C)C(=O)N[C@@H](CCC(=O)O)C(=O)N[C@@H](Cc1ccccc1)C(=O)NCC(N)=O | 29.6 |
| CSCC[C@H](NC(=O)[C@H](CC(C)C)NC(=O)[C@H](CCC(N)=O)NC(=O)[C@H](C)NC(=O)[C@H](Cc1ccc(OP(=O)(O)O)cc1)NC(=O)[C@H](CC(N)=O)NC(=O)[C@H](CC(C)C)NC(=O)[C@H](C)NC(=O)[C@H](C)NC(=O)[C@H](CCCCN)NC(=O)[C@H](CCCCN)NC(C)=O)C(=O)N[C@@H](Cc1ccccc1)C(=O)N1CCC[C@H]1C(N)=O | 4.2 |
| CC(=O)N[C@@H](C)C(=O)N[C@@H](CCCCN)C(=O)N[C@@H](CO)C(=O)NCC(=O)N[C@@H](C)C(=O)N[C@H](C(=O)N[C@@H](Cc1ccc(OP(=O)(O)O)cc1)C(=O)N[C@@H](CO)C(=O)N[C@@H](CCC(=O)O)C(=O)N[C@@H](CC(C)C)C(=O)N[C@@H](CC(N)=O)C(=O)N[C@@H](Cc1ccccc1)C(=O)NCC(N)=O)C(C)C | 166 |
| CC(=O)N1CCC[C@H]1C(=O)N[C@H](C(=O)N[C@@H](Cc1ccccc1)C(=O)N[C@@H](CO)C(=O)N[C@H](C(=O)N[C@@H](CC(=O)O)C(=O)N[C@@H](Cc1ccc(OP(=O)(O)O)cc1)C(=O)NCC(=O)N[C@@H](CCC(=O)O)C(=O)N[C@@H](CC(C)C)C(=O)N[C@@H](CC(=O)O)C(=O)N[C@@H](Cc1ccccc1)C(=O)N[C@@H](CCC(N)=O)C(N)=O)C(C)C)C(C)C | 6.55 |
| CC[C@H](C)[C@H](NC(=O)[C@@H](NC(=O)[C@H](C)NC(=O)[C@H](Cc1ccc(OP(=O)(O)O)cc1)NC(=O)[C@H](CCC(=O)O)NC(=O)[C@@H](NC(=O)[C@H](CCC(N)=O)NC(=O)[C@H](CCC(=O)O)NC(=O)[C@@H]1CCCN1C(=O)[C@@H](NC(C)=O)C(C)C)[C@@H](C)O)[C@@H](C)O)C(=O)N[C@H](C(=O)N[C@@H](Cc1ccccc1)C(=O)N1CCC[C@H]1C(N)=O)C(C)C | 6.26 |
| CC[C@H](C)[C@H](NC(=O)[C@H](CC(=O)O)NC(=O)[C@H](C)NC(=O)[C@H](Cc1ccc(OP(=O)(O)O)cc1)NC(=O)[C@H](CCCCN)NC(=O)[C@@H](NC(=O)[C@H](CC(=O)O)NC(=O)CNC(=O)[C@H](CCCCN)NC(=O)[C@H](CCSC)NC(C)=O)C(C)C)C(=O)N[C@@H](CCC(=O)O)C(=O)N[C@@H](CO)C(=O)N[C@@H](CO)C(N)=O | 120 |
